For 2 compounds, IC50 results are on record in ChEMBL document CHEMBL1155606, “Stolonic acids A and B, new cytotoxic cyclic peroxides from an Indian Ocean ascidian Stolonica species” (J Nat Prod, 2000).

≈ marks a conversion by molar mass, not a printed value.

For one experiment, the system named is OVCAR-3. The experiment in a line: Cytotoxicity against human OVCAR-3 cells after 48 hrs. The class given is functional, cell-based. The following applies: OVCAR-3, 48 h.
Experiment [1] in a line: Cytotoxicity against human LOX cells after 48 hrs. The class given is functional, cell-based.

As a reminder, the IC50 is the concentration needed to halve the response being measured. Low readings indicate inhibition by little substance, high ones a need for much substance. For `CCCC/C=C/C=C/CCCCCCCC[C@@H]1CC[C@@H]([C@@H]2CC[C@@H](CC(=O)O)OO2)O1` [STOLONIC ACID A], the 50% inhibitory concentration (IC50) with OVCAR-3 was determined as 0.1 µg/mL (≈ 0.229 µM); in experiment [1] it was 0.05 µg/mL (≈ 0.115 µM).

As for `CCCC/C=C\C=C/CCCCCCCC[C@@H]1CC[C@@H]([C@@H]2CC[C@@H](CC(=O)O)OO2)O1` [STOLONIC ACID B], the IC50 is 0.1 µg/mL (≈ 0.229 µM) in the experiment with OVCAR-3 and 0.05 µg/mL (≈ 0.115 µM) in experiment [1].
